Test results published in patent publication US7241579B2, “Method of screening for GPR40 ligands” (SmithKline Beecham Corporation, priority 2000, dated 2007).
Where two headings read alike, the source gives them in different places.

Tests used:
Format in all cases: cell-based
[1] = tested on: CHO cells expressing CRE-luciferase with no receptor; assay: CRE-luciferase reporter in CHO cells containing reporter only (no receptor); conditions: 4 hours of treatment
Description: (§1) Specific coupling was determined in mammalian cells using transient expression of a CRE-luciferase reporter for Gαs and stable cell-lines containing Gal4/ELK-1-luciferase reporter for Gαq/Gαi. Wild-type CHO cells were co-transfected with 3×-CRE-luciferase reporter vector and various amounts of an expression vector for GPR40. The control cells were transfected with reporter vector only. The reporter gene plasmids were produced in house but similar vectors can be purchased from Stratagene ([…]®). Cells were plated in a 24 well tissue culture plate at 1×10^4 cells/well in DMEM/F12 supplemented with 5% FBS. After 72 hours at 37° C., 5% CO2, the cells were transfected using the liposomal transfection reagent sold under the trademark LIPOFECTAME® and with the following combinations of plasmids: • A-3×-CRE-Luc • B-3×-CRE-Luc+CMV-GPR40 • C-3×-CRE-Luc+CMV-Gs coupled receptor The concentration of reporter plasmid for all wells was 0.15 μg/well. Concentrations of receptor plasmids were 0.5, 1.0, 5.0, 10.0 ng/well. After 24 hrs Cells containing 1 ng/well of receptor plasmid or no DNA control and CRE-Luc reporter were treated with fatty acid or the calcitonin which is known to act through a Gs-coupled receptor (Chakraborty, Science 251: 1078 (1991)) at concentrations indicated. […]

human GPR40 [2] = target: T1, human GPR40 (Homo sapiens, UniProt O14842); assay: CRE-luciferase reporter in CHO cells co-transfected with GPR40 expression vector; set-up: expressed in transfected cells; conditions: CHO cells containing GPR40 and CRE-Luc reporter, 4 hours of treatment
T1 sequence (O14842 whole entry): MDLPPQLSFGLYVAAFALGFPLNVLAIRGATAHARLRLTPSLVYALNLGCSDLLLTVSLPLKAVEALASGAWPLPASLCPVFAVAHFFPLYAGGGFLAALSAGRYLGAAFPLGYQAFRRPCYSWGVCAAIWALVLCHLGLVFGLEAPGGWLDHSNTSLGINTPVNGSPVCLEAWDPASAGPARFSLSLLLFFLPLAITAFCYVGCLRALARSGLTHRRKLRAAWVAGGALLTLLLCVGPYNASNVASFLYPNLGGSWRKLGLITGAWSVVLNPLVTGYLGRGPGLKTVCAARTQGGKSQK
Description: as §1

human GPR40 [3] = target: T1, human GPR40; assay: FLIPR intracellular calcium response in HEK-293 cells transiently expressing GPR40; set-up: expressed in transfected cells; host or cells: HEK-293 (transient); conditions: GPR40 stimulation
Excerpt: The Fluorometric Imaging Plate Reader (FLIPR™, Molecular Devices, UK) measures intracellular fluorescense in multi-well microplates. Where a GPCR couples to a calcium signalling pathway, the FLIPR system can be used with cells expressing the G-protein coupled receptor and containing calcium-sensitive fluorescent dyes, to monitor the intracellular calcium flux that occurs after activation of the G-coupled receptor. See, e.g., Kirk et al., J. Biomolecular Screening, 1:75 (1996).
(§2) The assays utilized a G-protein cocktail (+GPC) that contained chimeric and promiscuous G-proteins, as is known in the art of screening orphan G-protein coupled receptors.

[4] = tested on: CHO cells containing GAL4/Elk1-luciferase reporter constructs; assay: GAL4/Elk-1-luciferase reporter in host CHO cells (reporter only), with and without pertussis toxin; conditions: for agonist-stimulated reporter activity after pertussis toxin treatment: 1 ug/ml pertussis toxin 16 hours
Excerpt: (§3) To further test the coupling of GPR40 to Gαi/Gαq a Gal4/Elk-1 reporter was used. A stable, clonal reporter line was created by transfecting CHO cells with a plasmid that contains an expression construct for GAL4/Elk-1 and a GAL4-luciferase reporter construct. A similar reporter system can now be purchased from Stratagene (under the trademark […]®). An expression construct for human GPR40 which contains a G418 resistance construct was transfected into the host CHO GAL4/Elk-1 reporter cell line (10 ug plasmid DNA pCR3-GPR40) via electroporation. The cell lines were selected for with 500 ug/mL G418 until all cells in the control were dead and clones were then picked. The Gal4/Elk-1 reporter can be activated through Gq or Gi. To confirm coupling via Gi, cells were treated with pertussis toxin treatment which ADP-ribosylates Gαi preventing its interaction with receptors (Bokoch et al., J. Biol. Chem 258:2072 (1983)). Pertussis toxin has no known effect on Gαq.
(§4) Host cells and those transfected with the GPR40 construct were plated in a 96-well tissue culture plate at 2000 cells/well in DMEM/F12 supplemented with 5% FBS. After 48 hours at 37° C. at 5% CO2, the cells were placed in serum-free DMEM/F12 in the presence or absence of 1 ug/ml pertussis toxin. After 16 hours at 37° C., 5% CO2 the host cells were treated with: lysophosphatidic acid (oleoyl) (LPA) which couples through GαI to activate MAP kinase (Hordijk et al., J. Biol. Chem. 269: 645 (1994)); thrombin which couples through Gαi and Gαq (Hung et al., J. Biol. Chem. 267:20831 (1992)); or 5,8,11-Eicosatriynoic acid (a GPR40 ligand), at the concentrations indicated. The host cells containing the GPR40 construct were stimulated with or 5,8,11-Eicosatriynoic acid at the concentrations indicated. Controls for lysophosphatidic acid contained 0.5% DMSO; controls for […] contained 0.05% ethanol. Luciferase activity was assayed 4 hours after treatment using a luciferase reporter gene assay kit available under the trademark LUCLITE®, as per manufacturers instructions (Packard Bioscience).

human GPR40 [5] = target: T1, human GPR40; assay: GAL4/Elk-1-luciferase reporter in CHO clones transfected with human GPR40, with and without pertussis toxin; set-up: expressed in transfected cells
Excerpt: as §3, §4

HLTEX11 = assay: FLIPR calcium response in HEK-293 cells transiently expressing the 7TM receptor HLTEX11; conditions: HEK-293 cells transiently expressing HLTEX11, + G-protein cocktail
Excerpt: as §2

PGRW = assay: FLIPR calcium response in HEK-293 cells transiently expressing the 7TM receptor PGRW (GPRW); conditions: HEK-293 cells transiently expressing PGRW, + G-protein cocktail
Excerpt: as §2

[6] = FLIPR, Additional Fatty Acid Compounds, read-out: EC50 uM
[7] = FLIPR, Additional Fatty Acid Compounds, read-out: EC50
[8] = FLIPR, first of up to 3 experiments, read-out: Mean pEC50 (converted)
[9] = FLIPR, second of up to 3 experiments, read-out: Mean pEC50 (converted)
[10] = FLIPR, third experiment, read-out: Mean pEC50 (converted)
[11] = Mean pEC50 of 3 expts, FLIPR, overall mean (n = 1 or 2 where stated)
[12] = Mean pEC50, FLIPR, first of up to 3 experiments
[13] = Mean pEC50, FLIPR, second of up to 3 experiments
[14] = EC50 uM, FLIPR, Additional Fatty Acid Compounds
[15] = EC50 (M), FLIPR, Additional Fatty Acid Compounds

Molecule | EC50 (human GPR40 [3]; [6]) | EC50 (human GPR40 [3]; [7]) | EC50 (human GPR40 [3]; [8]) | EC50 (human GPR40 [3]; [9]) | EC50 (human GPR40 [3]; [10]) | EC50 (human GPR40 [3]; [11]) | other results
CCCCCCCCC#CCC#CCC#CCCCC(=O)O [5,8,11-Eicosatriynoic acid] | 1.7 µM | 1.7 µM |  |  |  |  | luciferase production (CRE-luciferase) [1]: no effect; luciferase production (CRE-luciferase) (human GPR40 [2]): no effect; luciferase production (GAL4/Elk-1 reporter) ([4]; 4 hours after treatment): no effect; agonist-stimulated luciferase activity after pertussis toxin treatment (human GPR40 [5]; cells containing GPR40, 1 ug/ml pertussis toxin 16 hours): not inhibited; luciferase activity compared to basal (GAL4/Elk-1 reporter) (human GPR40 [5]; cells containing GPR40, 4 hours after treatment): increased luciferase activity
C#CCCCCCCCCCCCCCCCC(=O)O [17-Octadecynoic acid] | 7.6 µM | 7.58 µM |  |  |  |  | 
CCCCC/C=C\C/C=C\C/C=C\C/C=C\CCCC(=O)O [Arachidonic acid] | 9.1 µM | 9.12 µM | 18.2 µM | 12.9 µM | 7.24 µM | 12 µM | 
CCCCCCCCCCCCCCCCCCCCCC(=O)O [Behenic acid] |  |  |  | 49 µM |  | 50.1 µM | EC50 (human GPR40 [3]; [12]): 51.3 µM
CCCCCCCCCC(=O)O [Capric acid] |  |  | 18.2 µM | 11 µM | 14.5 µM | 14.1 µM | 
CCCCCCCC(=O)O [Caprylic acid] |  |  |  |  |  | 38 µM | EC50 (human GPR40 [3]; [12]): 56.2 µM; EC50 (human GPR40 [3]; [13]): 26.3 µM
CCCCC/C=C\C/C=C\C/C=C\CCCCCCC(=O)O [Dihomo-gamma-linolenic acid] | 7.2 µM | 7.24 µM |  |  |  |  | 
CC/C=C\C/C=C\C/C=C\C/C=C\C/C=C\CCCCCC(=O)O [Docosa-7Z,10Z,13Z,16Z,19Z-pentaenoic acid] | 4.7 µM | 4.68 µM |  |  |  |  | 
CC/C=C\C/C=C\C/C=C\CCCCCCCCCCCC(=O)O [Docosa-13Z,16Z,19Z-trienoic acid] | 6.8 µM | 6.76 µM |  |  |  |  | 
CC/C=C\C/C=C\C/C=C\C/C=C\C/C=C\CCCC(=O)O [Eicosa-5Z,8Z,11Z,14Z,17Z-pentaenoic acid] | 6.8 µM | 6.76 µM |  |  |  |  | 
CCCCCCCCCCC/C=C\C/C=C\CCCC(=O)O [Eicosa-5Z,8Z-dienoic acid] | 7.8 µM | 7.76 µM |  |  |  |  | 
CC/C=C\C/C=C\C/C=C\CCCCCCCCCC(=O)O [Eicosa-11Z,14Z,17Z-trienoic acid] | 11.2 µM | 11.2 µM |  |  |  |  | 
CCCCC/C=C\C/C=C\CCCCCCCCCC(=O)O [Eicosa-11Z,14Z-dienoic acid] | 10.7 µM | 10.7 µM |  |  |  |  | 
CCCCCCCC/C=C/CCCCCCCC(=O)O [Elaidic acid] |  |  |  |  |  |  | FLIPR calcium response (HLTEX11): No response was detected; FLIPR calcium response (PGRW): No response was detected
CCCCCCCCCCCCCCCCCCCCC(=O)O [Heneicosanoic acid] |  |  | 35.5 µM | 29.5 µM |  | 32.4 µM | 
CCCCCCCCCCCCCCCCC(=O)O [Heptadecanoic acid] |  |  | 13.8 µM | 10.2 µM | 7.76 µM | 10.2 µM | 

Molecule | EC50 (human GPR40 [3]; [6]) | EC50 (human GPR40 [3]; [7]) | EC50 (human GPR40 [3]; [8]) | EC50 (human GPR40 [3]; [9]) | EC50 (human GPR40 [3]; [10]) | EC50 (human GPR40 [3]; [11]) | other results
CCCCCCC(=O)O [Heptanoic acid] |  |  | 46.8 µM | 60.3 µM |  | 52.5 µM | 
CCCCCCCC/C=C\CCCCCCCC(=O)OC[C@@H](O)COP(=O)(O)O [LPA, lysophosphatidic acid (oleoyl)] |  |  |  |  |  |  | agonist-stimulated reporter activity after pertussis toxin treatment [4]: completely abolished
CCCCCCCCCCCC(=O)O [Lauric acid] |  |  | 17.8 µM | 11.7 µM | 8.51 µM | 12 µM | 
CCCCC/C=C\C/C=C\CCCCCCCC(=O)O [Linoleic acid] |  |  |  |  |  | 18.6 µM | EC50 (human GPR40 [3]; [14]): 9.5 µM; EC50 (human GPR40 [3]; [15]): 9.54 µM; EC50 (human GPR40 [3]; [12]): 16.6 µM; EC50 (human GPR40 [3]; [13]): 20.9 µM
CC/C=C\C/C=C\C/C=C\CCCCCCCC(=O)O [Linolenic acid] |  |  |  |  |  | 12.6 µM | EC50 (human GPR40 [3]; [14]): 5.5 µM; EC50 (human GPR40 [3]; [15]): 5.5 µM; EC50 (human GPR40 [3]; [12]): 11.7 µM; EC50 (human GPR40 [3]; [13]): 21.9 µM; EC50 (human GPR40 [3]; Mean pEC50, FLIPR, third experiment): 7.59 µM
CCCCCCCCCCCCCCCCCCC(=O)O [Nonadecanoic acid] |  |  | 26.3 µM | 34.7 µM |  | 30.2 µM | 
CCCCCCCCC(=O)O [Nonanoic acid] |  |  |  |  |  | 39.8 µM | EC50 (human GPR40 [3]; [12]): 69.2 µM; EC50 (human GPR40 [3]; [13]): 23.4 µM
CCCCCCCCCCCCCCCC(=O)O [Palmitic acid] |  |  | 8.32 µM | 3.09 µM | 5.01 µM | 5.01 µM | 
CCCCCC/C=C\CCCCCCCC(=O)O [Palmitoleic acid] |  |  | 15.1 µM | 15.5 µM | 11 µM | 13.8 µM | 
CCCCCCCCCCCCCCC(=O)O [Pentadeconoic acid] |  |  | 10.7 µM | 4.37 µM | 6.17 µM | 6.61 µM | 
CCCCCCCCCCCCCCCCCC(=O)O [Stearic acid] |  |  | 20 µM | 16.6 µM | 14.1 µM | 16.6 µM | 
CCCCCCCCCCC(=O)O [Undecanoic acid] |  |  | 25.1 µM | 21.9 µM | 14.8 µM | 20 µM | 
CCC=CCC=CCC=CCC=CCC=CC/C=C\CCC(=O)O [cis-4,7,10,13,16,19-Docosahexaenoic acid] | 1.6 µM | 1.62 µM | 6.61 µM | 2.95 µM | 3.98 µM | 4.27 µM | 
calcitonin |  |  |  |  |  |  | luciferase production (CRE-luciferase) [1]: increase in luciferase production; luciferase production (CRE-luciferase) (human GPR40 [2]): increase in luciferase production
pertussis toxin |  |  |  |  |  |  | decrease of basal reporter activity following pertussis toxin treatment (human GPR40 [5]; GPR40 clones, 1 ug/ml pertussis toxin): up to 70%
thrombin |  |  |  |  |  |  | agonist-stimulated reporter activity after pertussis toxin treatment [4]: only partially attenuated
